Test results as given in patent US20150202243A1, “HDC Activation Inhibitor, HDC Activation Inhibition Composition, Antipruritic Agent, and Antipruritic Agent Composition” (HOYU CO., LTD., priority 2012, published 2015).
Structures can show the parent of a compound that is named as a salt.

System: SL-induced scratching behavior in mice
Assay: Inhibitory effect against sodium laurate-induced scratching behavior in mice
Type: in vivo, male ICR mice
Details: topical; for (b) average percentage of the number of scratches for 60 minutes relative to solvent control group taken as 100% / (a) mean plus/minus standard deviation of the number of scratches for 60 minutes: 10% SL 50 μL on rostral back, 90 min later 50 μL of 2.5% by mass test substance in 50% ethanol; for (a) mean plus/minus standard deviation of the number of scratches for 60 minutes: solvent control 80±2; for judgment of effectiveness as HDC activation inhibitor (antipruritic agent); effective if number of scratches is 80% or less of solvent control: 10% SL, 2.5% by mass test substance in 50% ethanol
Method: Test substances were evaluated for their HDC activation inhibitor (antipruritic agent) effect on the basis of their inhibitory effect on mice's scratching behavior induced by irritation with SL. The test substances used were apigenin, luteolin, sterubin, prunetin, tannic acid, chlorogenic acid, resveratrol, diphenhydramine hydrochloride, and d-chlorpheniramine maleate. Among these substances, diphenhydramine hydrochloride and d-chlorpheniramine maleate were conventionally known as antihistamic agents and served as comparative test substances.
Procedure: the test animals used were male ICR mice aged 7-8 weeks. At least 3 days before the test was conducted, the mice were shaved over a 6 cm^2 (2×3 cm) area on the rostral back.
The mice were divided into test substance group (n=3 or 4) and solvent control group (n=3). Fifty microliters of a 10% SL aqueous solution was applied to the rostral back of the mice to induce the mice's scratching behavior. Ninety minutes after the application of the SL solution, fifty microliters of a solution prepared with 50% ethanol to give a test substance concentration of 2.5% by mass was applied to the rostral back of the mice of the test substance group, and fifty microliters of 50% ethanol alone was applied to that of the solvent control group. The scratching behavior in the mice was evaluated by the following procedure.
More specifically, the mice treated as above were housed in acrylic cages (26×18×30 cm) divided into 4 sections, one mouse per section, and after the mice were acclimated for at least 30 minutes in an unattended environment, the behavior of the mice was recorded on video for 60 minutes. The recorded video was reviewed to check for the scratching behavior of the mice and visually count the number of a series of scratching behaviors which consist of an animal scratching the rostral back with a posterior leg and putting down the leg. Additionally, in the untreated group (n=4), the mice shaved on the rostral back but not treated with any of a SL solution, a test substance or 50% ethanol were evaluated for their scratching behavior by the same procedure.
According to these evaluation results, the number of scratches for 60 minutes is about 80 to 90 times in the solvent control, diphenhydramine hydrochloride, and d-chlorpheniramine maleate groups, while that number is about 40 times or less in all the test substance groups from apigenin to resveratrol. Regarding the inhibitory effect of the test substances on the number of scratches in mice, a possible criterion for judgment is that a test substance be judged to be effective as the HDC activation inhibitor (antipruritic agent) of the present invention if the number of scratches in the test substance group is 80% or less of that in the solvent control group.
In addition, with regard to FIG. 4, the values of the following two variables are listed below for each group: (a) the mean plus/minus standard deviation of the number of scratches for 60 minutes, and (b) the average value for the percentage of the number of scratches for 60 minutes in each group relative to that in the solvent control group which is taken as 100%.

Compound: O=c1cc(-c2ccc(O)cc2)oc2cc(O)cc(O)c12 [Apigenin, apigenin]
- (b) average percentage of the number of scratches for 60 minutes relative to solvent control group taken as 100%: 40.5%
- (a) mean plus/minus standard deviation of the number of scratches for 60 minutes: 32±5

Compound: O=C(/C=C/c1ccc(O)c(O)c1)O[C@@H]1C[C@](O)(C(=O)O)C[C@@H](O)[C@H]1O [Chlorogenic acid, chlorogenic acid]
- (b) average percentage of the number of scratches for 60 minutes relative to solvent control group taken as 100%: 50.8%
- (a) mean plus/minus standard deviation of the number of scratches for 60 minutes: 41±8

Compound: CN(C)CC[C@@H](c1ccc(Cl)cc1)c1ccccn1.O=C(O)/C=C\C(=O)O [D-chlorpheniramine maleate, d-chlorpheniramine maleate, reference compound]
- (b) average percentage of the number of scratches for 60 minutes relative to solvent control group taken as 100%: 113.6%
- (a) mean plus/minus standard deviation of the number of scratches for 60 minutes: 91±28
- judgment of effectiveness as HDC activation inhibitor (antipruritic agent); effective if number of scratches is 80% or less of solvent control: not certain

Compound: CN(C)CCOC(c1ccccc1)c1ccccc1 [Diphenhydramine hydrochloride, diphenhydramine hydrochloride, reference compound]
- (b) average percentage of the number of scratches for 60 minutes relative to solvent control group taken as 100%: 93.8%
- (a) mean plus/minus standard deviation of the number of scratches for 60 minutes: 75±25
- judgment of effectiveness as HDC activation inhibitor (antipruritic agent); effective if number of scratches is 80% or less of solvent control: not certain

Compound: O=c1cc(-c2ccc(O)c(O)c2)oc2cc(O)cc(O)c12 [Luteolin, luteolin]
- (b) average percentage of the number of scratches for 60 minutes relative to solvent control group taken as 100%: 43.0%
- (a) mean plus/minus standard deviation of the number of scratches for 60 minutes: 34±3

Compound: COc1cc(O)c2c(=O)c(-c3ccc(O)cc3)coc2c1 [Prunetin, prunetin]
- (b) average percentage of the number of scratches for 60 minutes relative to solvent control group taken as 100%: 52.7%
- (a) mean plus/minus standard deviation of the number of scratches for 60 minutes: 42±11

Compound: Oc1ccc(/C=C/c2cc(O)cc(O)c2)cc1 [Resveratrol, 3,5,4′-trihydroxy-trans-stilbene]
- (b) average percentage of the number of scratches for 60 minutes relative to solvent control group taken as 100%: 31.7%
- (a) mean plus/minus standard deviation of the number of scratches for 60 minutes: 25±14

Compound: COc1cc(O)c2c(c1)O[C@H](c1ccc(O)c(O)c1)CC2=O [Sterubin, sterubin]
- (b) average percentage of the number of scratches for 60 minutes relative to solvent control group taken as 100%: 44.4%
- (a) mean plus/minus standard deviation of the number of scratches for 60 minutes: 35±14

Compound: O=C(OC[C@H]1O[C@@H](OC(=O)c2cc(O)c(O)c(OC(=O)c3cc(O)c(O)c(O)c3)c2)[C@H](OC(=O)c2cc(O)c(O)c(OC(=O)c3cc(O)c(O)c(O)c3)c2)[C@@H](OC(=O)c2cc(O)c(O)c(OC(=O)c3cc(O)c(O)c(O)c3)c2)[C@@H]1OC(=O)c1cc(O)c(O)c(OC(=O)c2cc(O)c(O)c(O)c2)c1)c1cc(O)c(O)c(OC(=O)c2cc(O)c(O)c(O)c2)c1 [Tannic acid, tannic acid]
- (b) average percentage of the number of scratches for 60 minutes relative to solvent control group taken as 100%: 53.7%
- (a) mean plus/minus standard deviation of the number of scratches for 60 minutes: 43±22
